As usually defined, the Ki is the equilibrium dissociation constant of an inhibitor or competing ligand from its target. Lower therefore signals a stronger hold on the target.

The results in this text go back to BindingDB's records for doi:10.1016/s0960-894x(01)00814-9 (Friedrich-Alexander University, 2002).

The assay deals with 5-hydroxytryptamine receptor 1A (Sus scrofa). Briefly: Compound was tested in vitro for its ability to compete with [3H]8-OH-DPAT at 5-hydroxytryptamine 1A receptor in porcine brain homogenate.

`N#Cc1cccc2c(CN3CCN(c4ccc(Cl)cc4)CC3)cnn12` [3-[4-(4-Chloro-phenyl)-piperazin-1-ylmethyl]-pyrazolo[1,5-a]pyridine-7-carbonitrile] showed a Ki of 2.2 µM.
